Laboratory results: PubChem BioAssay AID2305 (GlaxoSmithKline (GSK), 2010)

System: P. falciparum 3D7 growth, pLDH absorbance
Assay: blood-stage malaria parasite growth potency – strain 3D7, dose response (AID 2305)

Cc1onc(-c2ccccc2)c1-c1nc(NCCC(c2ccccc2)c2ccccc2)no1
IC50: 840 nM

Cc1ccc(NC(=O)Nc2ccc(Br)cc2)cc1OCCN(C)C
IC50: 980 nM

COc1ccccc1N1CCN(Cc2c(O)ccc3cc(Br)ccc23)CC1
IC50: 1150 nM

CC(Cc1ccc(CN(CC(N)=O)Cc2ccc(CC(C)NCCc3cccc(Cl)c3)cc2)cc1)NCCc1cccc(Cl)c1 (stereo not drawn)
IC50: 670 nM

Cc1cccc2[nH]c(-c3ccc(-c4cccc(NC(=O)c5cccc(C(N)=O)c5)c4)cc3)nc12
IC50: 1130 nM

COc1ccc(NC(=O)Nc2ccc(C)c(-c3ccc(C(=O)NCCN4CCCC4)cc3)c2)cc1
IC50: 900 nM

CCCOc1cc(O)c(-c2n[nH]c(C)c2Oc2ccccc2)cc1CC
IC50: 1070 nM

O=C(NCCc1ccc(Cl)c(Cl)c1)c1ccc(CNC(=O)c2ccc(O)c(-c3ccc(Cl)c(Cl)c3)c2)cc1
IC50: 810 nM

Cc1c(S(=O)(=O)Nc2ccc3ccn(CCN(C)C)c3c2)sc2ccc(Cl)cc12
IC50: 920 nM

Cc1[nH]c(C)c(-c2ccc(CCc3ccc(N)cc3)cc2)c(=O)c1Cl
IC50: 100 nM

COc1ccc(C(=O)N2CCC3(CC2)C(=O)N(CC(=O)NCC2CCCCC2)CN3c2ccccc2)cc1
IC50: 270 nM

Cc1cc([N+](=O)[O-])ccc1NC(=O)Nc1cccc(C(F)(F)F)c1
IC50: 720 nM

Oc1ccc(CCNCCCCCCNCCc2ccc(Cl)c(Cl)c2)cc1O
IC50: 730 nM

CC(C)c1ccc(CN2CCC(NC(=O)c3ccc(-c4cccc(F)c4)s3)CC2)cc1
IC50: 1330 nM

COc1ccccc1C(C)NCC(=O)Nc1ccccc1Sc1ccccc1 (stereo not drawn)
IC50: 1100 nM

COc1ccc(NC(=O)C2CCN(CCCCCNC(=O)/C=C/c3ccc(Cl)c(Cl)c3)CC2)cc1
IC50: 830 nM

COc1ccc(NC(=O)[C@H](Cc2ccccc2)Nc2cc(C)nc(NCC3CCCCC3)n2)cc1
IC50: 680 nM

COc1ccc(N2CCN(CCCCNC(=O)c3ccc(NC(=O)c4cccc(Cl)c4)cc3)CC2)c(OC)c1
IC50: 910 nM

Cc1cccc2[nH]c(-c3ccc(-c4cccc(NC(=O)Cc5cnc[nH]5)c4)cc3)nc12
IC50: 900 nM

CC(C)NCc1cccc(-c2ccc(NC(=O)c3ccc(C#N)cc3)cc2)c1
IC50: 830 nM

CC(C)c1ccc(NC(=O)c2cccc(CN3CCCN(CC4CCCCC4)CC3)c2)cc1
IC50: 710 nM

O=C(/C=C/c1ccc(Cl)c(Cl)c1)N1CCC(CN2CCC(c3c(-c4ccc(F)cc4)[nH]c4ccccc34)CC2)CC1
IC50: 170 nM

COc1ccc(C(=O)NCCCCN2CCC(c3ccc4c(c3OC)CCCC4)CC2)cc1-c1ccc(C(F)(F)F)cc1
IC50: 750 nM

NC(=O)c1cnc2ccc(-c3cncs3)cc2c1Nc1ccc(F)c(Cl)c1
IC50: 180 nM

Cc1cccc2[nH]c(-c3ccc(-c4ccc(CN5CCCCC5)cc4)cc3)nc12
IC50: 590 nM

O=[N+]([O-])c1cccc(C=NNc2nc(Nc3ccccc3)nc(Nc3ccccc3)n2)c1
IC50: 970 nM

COc1cc(-c2cc3cc(Cl)c(Cl)cc3[nH]2)ccc1C(=O)NCCC1CCCN1C (stereo not drawn)
IC50: 970 nM

C[C@@H]1CN(c2cccc3c2nc(-c2cncc(C#N)c2)n3CCNCc2ccccc2)C[C@H](C)O1
IC50: 1220 nM

NC(=NCCCCC1CCCCC1)c1cccc(C(N)=NCCCCC2CCCCC2)n1
IC50: 390 nM

O=C(NC1CCCc2ccccc21)[C@@H]1CCCN1C(=O)c1ccc(O)c(-c2cccc([N+](=O)[O-])c2)c1 (stereo partly drawn)
IC50: 680 nM

Cc1cccc2[nH]c(-c3ccc(-c4cccc(CNCC5CCCO5)c4)s3)nc12 (stereo not drawn)
IC50: 970 nM

COc1cccc(OC2CCN(C(=O)c3cc(C(C)(C)C)nn3Cc3ccccc3)CC2)c1
IC50: 250 nM

O=C(c1ccccc1)N(Cc1ccccc1-c1ccc(CNCCc2ccccc2)cc1)C1CCN(Cc2ccccc2)CC1
IC50: 990 nM

O=C(c1cc2ccccc2o1)N1CCc2cc3nccc(N4CCN5CCC[C@H]5C4)c3cc21
IC50: 810 nM

O=C(/C=C/c1ccc(Cl)c(Cl)c1)NCCC(CN1CCC(c2c[nH]c3ccccc23)CC1)c1ccccc1 (stereo not drawn)
IC50: 570 nM

CC(C)CCNc1nc(NCc2ccccc2)c2cc(O)ccc2n1
IC50: 110 nM

Cc1ccc(Cn2ncc(NC3CCNCC3)c(Cl)c2=O)cc1NC(=O)Nc1ccc(-c2ccccc2)cc1
IC50: 660 nM

O=C(NCCCCN1CCN(c2nsc3ccccc23)CC1)c1ccccc1C(=O)NCCCCN1CCN(c2nsc3ccccc23)CC1
IC50: 890 nM
